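Interpolation was linear, between the two tested concentrations surrounding the appropriate level; five concentrations were tested over 48 hours in 96-well plates. GI50: concentration for 50% inhibition of growth. Definition used: TGI = concentration required for complete inhibition of growth.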
Experiments:
Assay in all cases: NCI tumour cell line growth inhibition, 48 h
[1] = tested on: MDA-MB-231 breast
[2] = tested on: OVCAR-3 ovarian
[3] = tested on: CAKI-1 renal
[4] = tested on: SK-MEL-28 melanoma
[5] = tested on: OVCAR-8 ovarian
[6] = tested on: SR leukemia
[7] = tested on: SF-268 CNS
[8] = tested on: UACC-62 melanoma
[9] = tested on: NCI-H460 lung
[10] = tested on: SK-OV-3 ovarian
[11] = tested on: NCI-H522 lung
[12] = tested on: A549 NSCLC
[13] = tested on: TK-10 renal
[14] = tested on: NCI-H226 lung
[15] = tested on: HOP-92 NSCLC
[16] = tested on: HS 578T breast
[17] = tested on: K-562 leukemia
[18] = tested on: CCRF-CEM leukemia
[19] = tested on: UO-31 renal
[20] = tested on: SK-MEL-5 melanoma
[21] = tested on: MOLT-4 leukemia
[22] = tested on: HCT-116 colon
[23] = tested on: ACHN renal
[24] = tested on: HT29 colon
[25] = tested on: HOP-62 NSCLC
[26] = tested on: SW-620 colon
[27] = tested on: OVCAR-4 ovarian
[28] = tested on: RXF 393 renal
[29] = tested on: M14 melanoma
[30] = tested on: BT-549 breast
[31] = tested on: OVCAR-5 ovarian
[32] = tested on: COLO 205 colon
[33] = tested on: T-47D breast
[34] = tested on: RPMI-8226 leukemia
[35] = tested on: HCC-2998 colon
[36] = tested on: SN12C renal
[37] = tested on: SF-539 CNS
[38] = tested on: SNB-19 CNS
[39] = tested on: U251 CNS
[40] = tested on: NCI-H23 lung
[41] = tested on: MDA-MB-435
[42] = tested on: 786-0 renal
[43] = tested on: UACC-257 melanoma
[44] = tested on: DU-145 prostate
[45] = tested on: NCI/ADR-RES ovarian
[46] = tested on: MCF7 breast
[47] = tested on: PC-3 prostate
[48] = tested on: SK-MEL-2 melanoma
[49] = tested on: A498 renal
[50] = tested on: KM12 colon
[51] = tested on: HL-60(TB) leukemia
[52] = tested on: HCT-15 colon
[53] = tested on: LOX IMVI melanoma
[54] = tested on: SF-295 CNS
[55] = tested on: IGROV1 ovarian
[56] = tested on: SNB-75 CNS
[57] = tested on: MALME-3M melanoma

Work on `O=C1NC(=NCCc2ccc(Br)cc2)S/C1=C\c1ccc2ncccc2c1` yielded a GI50 [1] greater than 25 µM, a TGI [1] greater than 25 µM and a GI50 [2] greater than 25 µM. It also gave a TGI [2] greater than 25 µM, a GI50 [3] greater than 20.3 µM and a TGI [3] greater than 25 µM. The GI50 [4] was greater than 25 µM, the TGI [4] was greater than 25 µM and the GI50 [5] was greater than 25 µM. It also gave a TGI [5] greater than 25 µM, a GI50 [6] of 7.31 µM and a TGI [6] greater than 25 µM. The GI50 [7] was 15.9 µM, the TGI [7] was greater than 25 µM and the GI50 [8] was greater than 25 µM. The TGI [8] was greater than 25 µM, the GI50 [9] was greater than 25 µM and the TGI [9] was greater than 25 µM. It also gave a GI50 [10] greater than 25 µM, a TGI [10] greater than 25 µM and a GI50 [11] of 12.9 µM. For the same compound, the TGI [11] was greater than 25 µM, the GI50 [12] was greater than 25 µM and the TGI [12] was greater than 25 µM. It also gave a GI50 [13] greater than 20.1 µM, a TGI [13] greater than 25 µM and a GI50 [14] greater than 25 µM. It also gave a TGI [14] greater than 25 µM, a GI50 [15] greater than 25 µM and a TGI [15] greater than 25 µM. For the same compound, the GI50 [16] was 11 µM, the TGI [16] was greater than 25 µM and the GI50 [17] was 24.6 µM. It also gave a TGI [17] greater than 25 µM, a GI50 [18] of 21.1 µM and a TGI [18] greater than 25 µM. For the same compound, the GI50 [19] was greater than 25 µM, the TGI [19] was greater than 25 µM and the GI50 [20] was greater than 21 µM. The TGI [20] was greater than 25 µM, the GI50 [21] was 19.7 µM and the TGI [21] was greater than 25 µM. The GI50 [22] was 16.7 µM, the TGI [22] was greater than 25 µM and the GI50 [23] was greater than 25 µM. The TGI [23] was greater than 25 µM, the GI50 [24] was greater than 25 µM and the TGI [24] was greater than 25 µM. The GI50 [25] was greater than 25 µM, the TGI [25] was greater than 25 µM and the GI50 [26] was greater than 25 µM. It also gave a TGI [26] greater than 25 µM, a GI50 [27] of 10.5 µM and a TGI [27] greater than 25 µM. For the same compound, the GI50 [28] was greater than 20.9 µM, the TGI [28] was greater than 25 µM and the GI50 [29] was greater than 25 µM. For the same compound, the TGI [29] was greater than 25 µM, the GI50 [30] was greater than 21.6 µM and the TGI [30] was greater than 25 µM. It also gave a GI50 [31] greater than 25 µM, a TGI [31] greater than 25 µM and a GI50 [32] greater than 25 µM. It also gave a TGI [32] greater than 25 µM, a GI50 [33] greater than 17.1 µM and a TGI [33] greater than 25 µM. It also gave a GI50 [34] greater than 25 µM, a TGI [34] greater than 25 µM and a GI50 [35] greater than 25 µM. It also gave a TGI [35] greater than 25 µM, a GI50 [36] greater than 25 µM and a TGI [36] greater than 25 µM. The GI50 [37] was 14.5 µM, the TGI [37] was greater than 25 µM and the GI50 [38] was greater than 25 µM. The TGI [38] was greater than 25 µM, the GI50 [39] was greater than 18.9 µM and the TGI [39] was greater than 25 µM. It also gave a GI50 [40] greater than 25 µM, a TGI [40] greater than 25 µM and a GI50 [41] of 11.8 µM. For the same compound, the TGI [41] was greater than 25 µM, the GI50 [42] was greater than 25 µM and the TGI [42] was greater than 25 µM. The GI50 [43] was greater than 25 µM, the TGI [43] was greater than 25 µM and the GI50 [44] was greater than 25 µM. For the same compound, the TGI [44] was greater than 25 µM, the GI50 [45] was greater than 20.6 µM and the TGI [45] was greater than 25 µM. The GI50 [46] was 22.1 µM, the TGI [46] was greater than 25 µM and the GI50 [47] was greater than 25 µM. For the same compound, the TGI [47] was greater than 25 µM, the GI50 [48] was 21.6 µM and the TGI [48] was greater than 25 µM. For the same compound, the GI50 [49] was 6.29 µM, the TGI [49] was greater than 25 µM and the GI50 [50] was 24.6 µM. It also gave a TGI [50] greater than 25 µM, a GI50 [51] greater than 25 µM and a TGI [51] greater than 25 µM. For the same compound, the GI50 [52] was greater than 22.3 µM, the TGI [52] was greater than 25 µM and the GI50 [53] was greater than 25 µM. It also gave a TGI [53] greater than 25 µM, a GI50 [54] greater than 23.2 µM and a TGI [54] greater than 25 µM. It also gave a GI50 [55] greater than 25 µM, a TGI [55] greater than 25 µM and a GI50 [56] greater than 25 µM. For the same compound, the TGI [56] was greater than 25 µM, the GI50 [57] was greater than 21.7 µM and the TGI [57] was greater than 25 µM.

From PubChem BioAssay (NCI)
